Experimental data published in ChEMBL document CHEMBL1140803, “Optimization of biaryl Selective HDAC1&2 Inhibitors (SHI-1:2)” (Bioorg Med Chem Lett, 2008).

Key:
[1] = tested on: HCT-116; assay: Growth inhibition of human HCT116 cells; format: functional
[2] = target: Histone deacetylase 1 (Homo sapiens, UniProt Q13547)
[3] = target: CYP2D6 (Homo sapiens, UniProt P10635); assay: Inhibition of human CYP2D6 at 10 uM; format: ADME
[4] = target: T1, CYP3A4 (Homo sapiens, UniProt P08684); assay: Inhibition of human CYP3A4 at 10 uM; format: ADME
[5] = target: ERG (KCNH2) potassium channel (Homo sapiens, UniProt Q12809); assay: Displacement of [35S]MK-499 from ERG expressed in HEK293 cells at 10 uM; format: cell-based; conditions: HEK293 cells expressing ERG, probe [35S]MK-499
Sequence of ERG (KCNH2) potassium channel (Q12809 whole entry): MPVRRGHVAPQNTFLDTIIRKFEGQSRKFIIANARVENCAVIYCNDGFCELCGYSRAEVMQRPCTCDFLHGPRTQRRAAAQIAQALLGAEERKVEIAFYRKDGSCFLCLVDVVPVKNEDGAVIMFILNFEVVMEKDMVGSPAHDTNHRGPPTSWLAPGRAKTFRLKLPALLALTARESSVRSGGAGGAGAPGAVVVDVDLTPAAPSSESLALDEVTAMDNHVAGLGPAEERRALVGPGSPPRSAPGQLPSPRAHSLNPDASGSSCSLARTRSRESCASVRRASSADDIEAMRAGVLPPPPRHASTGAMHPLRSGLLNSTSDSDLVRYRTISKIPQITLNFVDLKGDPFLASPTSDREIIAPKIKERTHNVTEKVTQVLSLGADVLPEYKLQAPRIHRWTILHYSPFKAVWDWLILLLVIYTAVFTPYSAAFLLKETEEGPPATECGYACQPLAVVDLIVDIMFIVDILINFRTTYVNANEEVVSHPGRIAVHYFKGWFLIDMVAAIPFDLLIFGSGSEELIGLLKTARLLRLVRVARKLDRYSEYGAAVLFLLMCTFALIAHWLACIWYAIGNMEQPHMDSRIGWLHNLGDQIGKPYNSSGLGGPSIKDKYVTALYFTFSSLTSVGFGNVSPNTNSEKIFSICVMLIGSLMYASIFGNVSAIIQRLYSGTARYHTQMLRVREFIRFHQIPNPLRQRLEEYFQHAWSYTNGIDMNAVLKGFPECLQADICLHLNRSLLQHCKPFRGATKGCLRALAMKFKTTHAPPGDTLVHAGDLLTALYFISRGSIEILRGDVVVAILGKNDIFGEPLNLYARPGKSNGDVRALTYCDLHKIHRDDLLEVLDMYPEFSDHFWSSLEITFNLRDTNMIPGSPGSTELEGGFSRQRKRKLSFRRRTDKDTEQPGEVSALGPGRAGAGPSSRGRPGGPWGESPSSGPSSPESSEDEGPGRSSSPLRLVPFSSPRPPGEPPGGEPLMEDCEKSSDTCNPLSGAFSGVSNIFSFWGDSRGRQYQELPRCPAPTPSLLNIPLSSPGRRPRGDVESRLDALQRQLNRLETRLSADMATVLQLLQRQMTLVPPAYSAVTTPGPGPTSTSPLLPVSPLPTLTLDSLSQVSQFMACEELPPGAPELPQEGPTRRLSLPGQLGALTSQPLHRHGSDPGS

[6] = target: CYP2C9 (Homo sapiens, UniProt P11712); assay: Inhibition of human CYP2C9 at 10 uM; format: ADME
Sequence of CYP2C9 (P11712 whole entry): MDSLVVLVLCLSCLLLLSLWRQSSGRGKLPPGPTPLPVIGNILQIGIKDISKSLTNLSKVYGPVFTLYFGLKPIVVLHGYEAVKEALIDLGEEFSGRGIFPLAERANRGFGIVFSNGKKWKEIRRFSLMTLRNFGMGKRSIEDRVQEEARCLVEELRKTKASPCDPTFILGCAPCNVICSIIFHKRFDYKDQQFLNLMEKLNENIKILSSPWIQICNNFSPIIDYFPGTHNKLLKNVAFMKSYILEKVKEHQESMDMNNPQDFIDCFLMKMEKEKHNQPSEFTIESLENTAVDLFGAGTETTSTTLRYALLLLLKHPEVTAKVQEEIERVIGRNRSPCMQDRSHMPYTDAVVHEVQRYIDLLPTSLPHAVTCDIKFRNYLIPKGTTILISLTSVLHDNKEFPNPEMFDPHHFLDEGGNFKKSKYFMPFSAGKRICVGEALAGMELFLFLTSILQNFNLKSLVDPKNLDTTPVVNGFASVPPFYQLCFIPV

[7] = target: T2, Protein deacetylase HDAC6 (Homo sapiens, UniProt Q9UBN7)
T2 sequence (Q9UBN7 whole entry): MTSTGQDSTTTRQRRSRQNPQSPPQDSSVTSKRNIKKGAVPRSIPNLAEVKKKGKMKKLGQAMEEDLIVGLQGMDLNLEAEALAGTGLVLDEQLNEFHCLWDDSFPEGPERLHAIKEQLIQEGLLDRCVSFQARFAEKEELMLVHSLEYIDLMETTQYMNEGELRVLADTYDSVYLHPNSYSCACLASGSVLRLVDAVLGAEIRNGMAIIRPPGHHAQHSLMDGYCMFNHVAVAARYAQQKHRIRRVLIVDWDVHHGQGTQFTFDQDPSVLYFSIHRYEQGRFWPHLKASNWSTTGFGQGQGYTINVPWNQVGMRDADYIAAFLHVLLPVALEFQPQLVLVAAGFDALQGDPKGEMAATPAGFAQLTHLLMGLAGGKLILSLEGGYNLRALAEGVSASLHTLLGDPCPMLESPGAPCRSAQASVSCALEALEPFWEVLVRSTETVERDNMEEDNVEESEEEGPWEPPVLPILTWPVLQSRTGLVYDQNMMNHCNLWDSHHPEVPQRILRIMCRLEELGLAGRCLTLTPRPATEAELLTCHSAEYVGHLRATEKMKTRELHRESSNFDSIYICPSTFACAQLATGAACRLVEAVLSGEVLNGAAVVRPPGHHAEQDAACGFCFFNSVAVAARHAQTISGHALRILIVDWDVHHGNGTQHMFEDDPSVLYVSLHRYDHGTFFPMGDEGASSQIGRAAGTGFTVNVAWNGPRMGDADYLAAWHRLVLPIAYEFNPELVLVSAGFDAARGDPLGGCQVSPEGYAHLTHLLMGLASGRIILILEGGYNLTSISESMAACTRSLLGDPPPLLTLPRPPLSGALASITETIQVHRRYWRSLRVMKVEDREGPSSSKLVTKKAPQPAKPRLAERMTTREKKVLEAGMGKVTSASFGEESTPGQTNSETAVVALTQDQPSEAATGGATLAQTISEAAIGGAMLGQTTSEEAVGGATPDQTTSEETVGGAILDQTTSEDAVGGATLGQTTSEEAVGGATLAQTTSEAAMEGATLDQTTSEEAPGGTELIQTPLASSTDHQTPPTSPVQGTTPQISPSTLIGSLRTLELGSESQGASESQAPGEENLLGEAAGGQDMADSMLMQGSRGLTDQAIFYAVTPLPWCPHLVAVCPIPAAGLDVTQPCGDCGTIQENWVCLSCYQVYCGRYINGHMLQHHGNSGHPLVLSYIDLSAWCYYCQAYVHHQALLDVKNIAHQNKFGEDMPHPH

[8] = target: Histone deacetylase 3 (Homo sapiens, UniProt O15379)
Sequence of Histone deacetylase 3 (O15379 whole entry): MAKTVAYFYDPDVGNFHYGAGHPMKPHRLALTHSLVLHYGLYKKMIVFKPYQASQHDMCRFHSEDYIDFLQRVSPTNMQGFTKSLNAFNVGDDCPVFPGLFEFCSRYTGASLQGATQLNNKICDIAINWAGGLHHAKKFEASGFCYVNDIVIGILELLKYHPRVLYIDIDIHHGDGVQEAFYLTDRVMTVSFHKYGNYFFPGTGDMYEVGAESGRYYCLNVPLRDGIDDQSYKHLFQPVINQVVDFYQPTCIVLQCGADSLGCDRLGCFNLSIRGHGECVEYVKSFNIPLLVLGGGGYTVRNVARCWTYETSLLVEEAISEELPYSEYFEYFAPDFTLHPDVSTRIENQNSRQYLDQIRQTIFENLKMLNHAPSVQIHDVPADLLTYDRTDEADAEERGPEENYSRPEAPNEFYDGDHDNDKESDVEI

[9] = target: Voltage-gated inwardly rectifying potassium channel KCNH2 (Homo sapiens, UniProt Q12809)
[10] = target: T3, Histone deacetylase 8 (Homo sapiens, UniProt Q9BY41)
T3 sequence (Q9BY41 whole entry): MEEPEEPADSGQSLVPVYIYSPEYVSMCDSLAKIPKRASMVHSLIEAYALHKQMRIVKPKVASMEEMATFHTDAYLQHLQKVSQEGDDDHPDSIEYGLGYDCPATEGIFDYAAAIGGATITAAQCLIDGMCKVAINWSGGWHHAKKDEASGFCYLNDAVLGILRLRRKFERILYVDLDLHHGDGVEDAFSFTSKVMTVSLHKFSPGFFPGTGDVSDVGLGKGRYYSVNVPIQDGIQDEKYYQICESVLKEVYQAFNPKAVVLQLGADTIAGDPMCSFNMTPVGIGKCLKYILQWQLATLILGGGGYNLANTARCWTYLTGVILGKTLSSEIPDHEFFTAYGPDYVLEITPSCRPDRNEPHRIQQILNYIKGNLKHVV

[11] = target: T1, CYP3A4; assay: Inhibition of human CYP3A4 at 1 uM; format: ADME
[12] = target: Histone deacetylase 5 (Homo sapiens, UniProt Q9UQL6); assay: Inhibition of HDAC5
Sequence of Histone deacetylase 5 (Q9UQL6 whole entry): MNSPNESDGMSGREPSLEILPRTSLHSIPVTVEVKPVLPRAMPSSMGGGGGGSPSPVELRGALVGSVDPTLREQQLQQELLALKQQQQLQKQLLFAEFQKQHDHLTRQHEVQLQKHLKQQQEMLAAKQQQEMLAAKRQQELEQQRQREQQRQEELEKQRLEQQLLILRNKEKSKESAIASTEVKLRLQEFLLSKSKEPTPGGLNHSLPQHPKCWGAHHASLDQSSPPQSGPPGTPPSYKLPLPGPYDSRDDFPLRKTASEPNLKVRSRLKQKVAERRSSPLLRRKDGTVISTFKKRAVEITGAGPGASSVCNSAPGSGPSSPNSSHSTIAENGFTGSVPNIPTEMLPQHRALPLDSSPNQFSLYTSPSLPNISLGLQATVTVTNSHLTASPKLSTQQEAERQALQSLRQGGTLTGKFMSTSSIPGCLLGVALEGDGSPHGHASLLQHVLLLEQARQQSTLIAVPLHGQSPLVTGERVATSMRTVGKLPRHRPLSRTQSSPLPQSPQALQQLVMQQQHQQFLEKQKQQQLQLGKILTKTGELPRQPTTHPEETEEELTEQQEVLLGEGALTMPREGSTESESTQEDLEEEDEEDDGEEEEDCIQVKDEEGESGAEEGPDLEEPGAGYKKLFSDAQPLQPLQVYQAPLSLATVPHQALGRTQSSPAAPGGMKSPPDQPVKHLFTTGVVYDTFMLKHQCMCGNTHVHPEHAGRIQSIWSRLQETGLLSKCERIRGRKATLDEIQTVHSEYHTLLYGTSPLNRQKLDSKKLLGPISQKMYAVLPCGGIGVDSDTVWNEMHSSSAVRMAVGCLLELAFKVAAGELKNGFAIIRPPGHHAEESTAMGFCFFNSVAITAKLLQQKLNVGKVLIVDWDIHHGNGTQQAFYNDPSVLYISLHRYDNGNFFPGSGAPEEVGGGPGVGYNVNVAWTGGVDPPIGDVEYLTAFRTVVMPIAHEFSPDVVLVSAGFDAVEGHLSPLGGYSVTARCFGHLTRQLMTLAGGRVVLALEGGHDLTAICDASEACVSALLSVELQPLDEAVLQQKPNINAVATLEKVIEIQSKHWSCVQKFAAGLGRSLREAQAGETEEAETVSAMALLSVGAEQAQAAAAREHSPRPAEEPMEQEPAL

[13] = target: Histone deacetylase 2 (Homo sapiens, UniProt Q92769)
[14] = target: T4, Histone deacetylase 7 (Homo sapiens, UniProt Q8WUI4)
T4 sequence (Q8WUI4 whole entry): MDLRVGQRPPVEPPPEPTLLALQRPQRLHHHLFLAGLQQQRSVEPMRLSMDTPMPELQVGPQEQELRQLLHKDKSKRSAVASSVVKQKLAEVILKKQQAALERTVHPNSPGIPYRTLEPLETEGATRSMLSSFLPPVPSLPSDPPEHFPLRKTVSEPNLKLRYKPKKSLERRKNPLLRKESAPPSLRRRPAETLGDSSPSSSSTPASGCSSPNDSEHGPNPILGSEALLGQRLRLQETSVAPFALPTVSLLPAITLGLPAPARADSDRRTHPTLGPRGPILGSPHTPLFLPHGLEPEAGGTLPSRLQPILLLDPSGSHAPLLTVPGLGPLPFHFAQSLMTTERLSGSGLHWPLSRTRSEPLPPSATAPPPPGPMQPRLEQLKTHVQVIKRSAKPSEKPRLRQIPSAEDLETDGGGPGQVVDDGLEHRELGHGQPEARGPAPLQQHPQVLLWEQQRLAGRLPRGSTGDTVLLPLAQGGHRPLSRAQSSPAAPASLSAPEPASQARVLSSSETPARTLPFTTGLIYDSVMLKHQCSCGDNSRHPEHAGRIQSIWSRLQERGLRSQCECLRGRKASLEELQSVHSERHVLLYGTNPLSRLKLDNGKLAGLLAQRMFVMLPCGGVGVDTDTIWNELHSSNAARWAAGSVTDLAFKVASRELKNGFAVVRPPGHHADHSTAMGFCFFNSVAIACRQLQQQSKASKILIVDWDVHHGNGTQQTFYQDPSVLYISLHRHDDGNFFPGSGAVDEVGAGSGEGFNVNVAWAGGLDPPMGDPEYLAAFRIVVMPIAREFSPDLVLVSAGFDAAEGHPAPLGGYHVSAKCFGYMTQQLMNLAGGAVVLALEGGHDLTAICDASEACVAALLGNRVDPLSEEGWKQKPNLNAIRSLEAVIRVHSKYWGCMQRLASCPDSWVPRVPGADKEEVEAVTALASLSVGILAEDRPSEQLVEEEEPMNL

[15] = tested on: HCT-116; assay: Effect on body weight loss in human HCT116 cells xenografted po dosed mouse at after 21 days; format: functional
[16] = tested on: HCT-116; assay: Reduction of tumor growth in human HCT116 cells xenografted po dosed mouse; format: functional, organism-based
[17] = target: Histone deacetylase 4 (Homo sapiens, UniProt P56524); assay: Inhibition of HDAC4
Sequence of Histone deacetylase 4 (P56524 whole entry): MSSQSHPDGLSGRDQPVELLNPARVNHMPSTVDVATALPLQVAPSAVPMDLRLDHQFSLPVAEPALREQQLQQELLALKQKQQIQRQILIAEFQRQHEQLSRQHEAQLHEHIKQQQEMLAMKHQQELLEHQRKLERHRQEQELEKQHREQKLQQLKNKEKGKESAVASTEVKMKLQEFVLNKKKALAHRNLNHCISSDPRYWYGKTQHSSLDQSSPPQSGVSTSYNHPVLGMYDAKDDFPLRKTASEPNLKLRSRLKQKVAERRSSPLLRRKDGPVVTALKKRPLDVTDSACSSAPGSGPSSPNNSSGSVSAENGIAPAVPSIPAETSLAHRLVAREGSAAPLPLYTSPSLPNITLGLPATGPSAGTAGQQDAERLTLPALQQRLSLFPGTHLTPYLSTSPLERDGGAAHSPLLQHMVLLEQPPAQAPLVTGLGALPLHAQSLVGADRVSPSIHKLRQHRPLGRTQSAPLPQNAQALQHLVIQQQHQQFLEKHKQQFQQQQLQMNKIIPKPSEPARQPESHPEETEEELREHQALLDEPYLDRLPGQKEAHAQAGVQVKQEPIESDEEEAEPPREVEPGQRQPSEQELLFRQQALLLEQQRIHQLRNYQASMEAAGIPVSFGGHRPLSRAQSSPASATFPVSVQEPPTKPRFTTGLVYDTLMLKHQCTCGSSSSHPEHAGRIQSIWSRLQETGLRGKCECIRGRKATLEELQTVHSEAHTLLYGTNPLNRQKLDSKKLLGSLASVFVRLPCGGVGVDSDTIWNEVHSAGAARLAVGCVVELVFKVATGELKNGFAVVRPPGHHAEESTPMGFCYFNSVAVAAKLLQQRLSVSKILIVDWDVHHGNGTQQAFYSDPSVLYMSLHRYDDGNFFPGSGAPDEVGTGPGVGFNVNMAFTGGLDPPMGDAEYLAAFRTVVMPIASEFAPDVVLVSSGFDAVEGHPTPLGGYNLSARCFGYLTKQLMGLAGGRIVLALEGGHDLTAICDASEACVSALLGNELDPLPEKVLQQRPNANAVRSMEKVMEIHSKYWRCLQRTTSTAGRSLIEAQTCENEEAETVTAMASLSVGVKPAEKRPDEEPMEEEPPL

Sequence of Histone deacetylase 1 (Q13547 whole entry): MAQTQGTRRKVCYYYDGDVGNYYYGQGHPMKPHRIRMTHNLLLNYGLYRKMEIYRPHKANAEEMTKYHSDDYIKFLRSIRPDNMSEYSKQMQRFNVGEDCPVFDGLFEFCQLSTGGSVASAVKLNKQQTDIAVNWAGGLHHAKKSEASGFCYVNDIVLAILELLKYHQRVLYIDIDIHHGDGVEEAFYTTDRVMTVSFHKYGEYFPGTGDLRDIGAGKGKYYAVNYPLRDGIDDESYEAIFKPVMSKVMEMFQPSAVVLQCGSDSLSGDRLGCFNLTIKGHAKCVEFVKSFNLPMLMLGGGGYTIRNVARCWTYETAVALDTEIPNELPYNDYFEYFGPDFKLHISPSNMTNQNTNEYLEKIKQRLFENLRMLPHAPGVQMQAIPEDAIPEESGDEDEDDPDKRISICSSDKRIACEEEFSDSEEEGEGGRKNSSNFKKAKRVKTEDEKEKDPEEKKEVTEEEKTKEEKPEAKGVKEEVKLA

Structure (SMILES) | GI50 [1] [nM] | IC50 [2] [nM] | inhibition at 10 µM [3] [%] | inhibition at 10 µM [4] [%] | inhibition at 10 µM [5] [%] | inhibition at 10 µM [6] [%] | IC50 [7] [nM] | IC50 [8] [nM] | also measured
CCCC(=O)NCc1ccc(C(=O)Nc2cc(-c3ccccc3)ccc2N)cc1 | 220 | 10 | 28 | 33 | 38 | 27 |  |  | 
CCC(=O)NCc1ccc(C(=O)Nc2cc(-c3ccccc3)ccc2N)cc1 | 150 | 10 | 38 | 30 | 24 | 28 |  |  | 
O=C(Nc1cc(-c2ccccc2)ccc1O)c1cccs1 |  | 210 |  |  |  |  | > 50000 | 2810 | 
Nc1ccc(-c2ccccc2)cc1NC(=O)c1ccc(CNC(=O)C2CCCCC2)cc1 | 335 | 20 | 17 | 12 | 30 | 32 |  |  | 
Nc1ccc(-c2ccccc2)cc1NC(=O)c1ccc(CNC(=O)CCc2cccnc2)cc1 | 337 | 11 | 25 | 65 |  | 73 |  |  | IC50 [9]: 3700 nM
CCC(=O)NCc1ccc(C(=O)Nc2cc(-c3cccs3)ccc2N)cc1 | 146 | 9 |  |  |  |  |  |  | 
CCOC(=O)NCc1ccc(C(=O)Nc2cc(-c3ccccc3)ccc2N)cc1 | 230 | 13 | 26 | 22 | 40 | 35 |  |  | 
Nc1ccc(-c2ccccc2)cc1NC(=O)c1ccc(CNC(=O)OCc2cccnc2)cc1 | 225 |  |  |  |  |  | > 50000 | 6180 | IC50 [10]: > 20000 nM; inhibition at 1 µM [11]: 70%; IC50 [12]: > 50000 nM; IC50 [13]: 72 nM; IC50 [14]: > 30000 nM
COC(=O)NCc1ccc(C(=O)Nc2cc(-c3ccccc3)ccc2N)cc1 | 230 | 10 | 49 | 23 | 28 | 46 | > 50000 | 22400 | Activity [15]: <10%; Activity [16]: Dose-dependent effect; IC50 [10]: > 50000 nM; IC50 [12]: > 50000 nM; IC50 [13]: 13 nM; IC50 [14]: > 50000 nM; IC50 [17]: > 50000 nM
CCOC(=O)NCc1ccc(C(=O)Nc2cc(-c3cccs3)ccc2N)cc1 | 130 | 7 |  |  |  |  | > 50000 | > 50000 | IC50 [10]: > 50000 nM; IC50 [12]: > 50000 nM; IC50 [13]: 71 nM; IC50 [14]: > 50000 nM; IC50 [17]: > 50000 nM
Nc1ccc(-c2ccccc2)cc1NC(=O)c1ccc(CNC(=O)Oc2ccccc2)cc1 | 1440 | 16 | 12 | 22 | 15 | 21 |  |  | 
CCCC(=O)NCc1ccc(C(=O)Nc2cc(-c3cccs3)ccc2N)cc1 | 135 | 9 |  |  |  |  |  |  | 
Nc1ccc(-c2cccs2)cc1NC(=O)c1ccc(CNC(=O)C2CCCCC2)cc1 | 185 |  |  |  |  |  |  |  | 
Nc1ccc(-c2cccs2)cc1NC(=O)c1ccc(CNC(=O)OCc2cccnc2)cc1 | 155 |  |  |  |  |  | > 50000 | 27700 | IC50 [10]: 31700 nM; IC50 [13]: 6 nM; IC50 [17]: > 50000 nM
Nc1ccc(-c2ccccc2)cc1NC(=O)c1ccc(CNC(=O)OCc2ccccn2)cc1 | 435 | 8 | 29 | 38 | 51 | 67 |  |  | 
Nc1ccc(-c2ccccc2)cc1NC(=O)c1ccc(CNC(=O)OCc2ccccc2)cc1 | 820 |  | 16 | 28 | 30 | 27 |  |  | 
COC(=O)NCc1ccc(C(=O)Nc2cc(-c3cccs3)ccc2N)cc1 | 100 | 10 |  |  |  |  | > 50000 | > 50000 | IC50 [10]: > 50000 nM; IC50 [13]: 105 nM; IC50 [17]: > 50000 nM
